Test results reported in article PMC5872150 (ACS chemical neuroscience, 2017).
Counter-ions that a name gives are not always drawn. Like-named read-outs stand apart in the source and are kept apart here.

Assays:
[1] = test system: CHO-hM1 cells; assay: Ca2+ assay features: Fluo-4 fluorescent signal of CHO-hM1 cells; assay type: cell-based, Chinese hamster; settings: bath application
[2] = test system: pilocarpine-induced seizures in C57BL/6 mice; assay: Pilocarpine-induced seizures; assay type: in vivo, mouse
[3] = biological target: T1, human M1 mAChR (Homo sapiens, UniProt P11229)
T1 sequence (P11229 1-460): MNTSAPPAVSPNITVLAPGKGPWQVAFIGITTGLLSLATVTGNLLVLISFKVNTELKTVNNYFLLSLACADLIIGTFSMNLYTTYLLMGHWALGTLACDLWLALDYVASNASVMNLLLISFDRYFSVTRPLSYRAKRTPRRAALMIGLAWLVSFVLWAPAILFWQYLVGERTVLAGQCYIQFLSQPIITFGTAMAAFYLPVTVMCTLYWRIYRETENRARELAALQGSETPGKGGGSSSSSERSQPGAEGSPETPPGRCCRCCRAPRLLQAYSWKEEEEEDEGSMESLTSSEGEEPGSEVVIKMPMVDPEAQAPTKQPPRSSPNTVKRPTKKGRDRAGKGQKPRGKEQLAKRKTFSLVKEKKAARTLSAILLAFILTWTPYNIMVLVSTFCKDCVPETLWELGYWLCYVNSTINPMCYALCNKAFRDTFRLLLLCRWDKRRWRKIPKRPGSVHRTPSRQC

[4] = test system: pilocarpine-induced total fluid secretion in C57BL/6 mice; settings: s.c., pilocarpine 50 mg/kg i.p.
[5] = biological target: human α7 nAChR (Homo sapiens, UniProt P36544); settings: for inhibition of acetylcholine-induced inward current: acetylcholine 1 mM
human α7 nAChR, sequence (P36544 23-502): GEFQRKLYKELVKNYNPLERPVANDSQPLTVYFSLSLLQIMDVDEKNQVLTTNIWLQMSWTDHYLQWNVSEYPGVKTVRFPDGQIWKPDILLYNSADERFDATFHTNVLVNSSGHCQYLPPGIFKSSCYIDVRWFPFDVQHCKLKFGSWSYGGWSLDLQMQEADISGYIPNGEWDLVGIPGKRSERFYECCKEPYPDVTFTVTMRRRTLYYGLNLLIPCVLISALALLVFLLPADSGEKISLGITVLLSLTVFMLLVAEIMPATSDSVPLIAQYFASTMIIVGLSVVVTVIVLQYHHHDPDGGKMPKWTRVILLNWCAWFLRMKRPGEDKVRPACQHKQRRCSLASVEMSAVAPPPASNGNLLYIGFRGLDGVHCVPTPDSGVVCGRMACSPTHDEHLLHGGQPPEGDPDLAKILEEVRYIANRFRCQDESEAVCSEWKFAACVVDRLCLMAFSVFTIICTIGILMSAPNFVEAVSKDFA

Molecule: Nc1ncnc2c1ncn2[C@@H]1O[C@H](COP(=O)(O)OP(=O)(O)OP(=O)(O)O)[C@@H](O)[C@H]1O [ATP]
- effect on Ca2+-dependent fluorescent counts ([1]; ATP 100 μM): rapidly increased the fluorescent counts

Molecule: C/C=C(/C)C(=O)O[C@H]1C(C)=C2[C@H]([C@@H]1OC(=O)CCCCCCC)[C@@](C)(OC(C)=O)C[C@H](OC(=O)CCC)[C@@]1(O)[C@H]2OC(=O)[C@@]1(C)O [Thapsigargin]
- effect on Ca2+-dependent fluorescent counts ([1]; thapsigargin 1 μM): smaller and slower increase in the fluorescent counts

Molecule: CN1[C@@H]2CC[C@H]1C[C@@H](OC(=O)C(CO)c1ccccc1)C2 (some centres unmarked) [atropine sulfate, Atropine sulfate monohydrate, reference compound]
- effect on pilocarpine-induced seizures ([2]; 3 mg/kg s.c. 25 min before pilocarpine 278 mg/kg): blocked the development of seizures in every mouse

Molecule: ethylatropine bromide
- time to behavior score 3 after pilocarpine administration ([2]; 100 mg/kg s.c. 25 min before pilocarpine 278 mg/kg, all six mice): ≤ 30 min
- effect on pilocarpine-induced seizures ([2]; 100 mg/kg s.c. 25 min before pilocarpine 278 mg/kg, six mice): experienced at least one tonic seizure
- fold less potent than atropine at human M1 muscarinic receptors [3]: approximately 3.3 fold
- approximate IC50 for attenuation of pilocarpine-induced total secretion [4]: ~0.3 mg/kg
- inhibition of acetylcholine-induced inward current ([5]; 3 μM, n = 3): 1.2 ± 8%
- inhibition of acetylcholine-induced inward current ([5]; 30 μM, n = 5): 29 ± 3%
- inhibition of acetylcholine-induced inward current ([5]; 300 μM, n = 4): 46 ± 2%
- fold less potent than atropine sulfate at α7 nicotinic receptors ([5]; ratio of estimated IC50s): ~300 fold
